In paper PMC6927578 (Archiv der Pharmazie, 2016):
Where two headings read alike, the source gives them in different places.

How the values were obtained:
[1] = test system: HDAC activity from HeLa cell lysates; experiment: Fluor de Lys in vitro fluorescence HDAC activity assay with HeLa cell lysates; type: biochemical, human; settings: for fold reduced potency compared to SAHA: HeLa cell lysates IC50 ratio; for IC50 / % activity remaining: HeLa cell lysates; for IC50: mean of three trials with standard error; for % activity remaining: 250 μM compound
[2] = target: HDAC1 (Homo sapiens, UniProt Q13547); experiment: Fluor de Lys HDAC isoform assay, HDAC1; settings: for isoform selectivity among HDAC1, 3 and 6: 125 μM single concentration screen (Fig. 2)
[3] = target: T1, HDAC6 (Homo sapiens, UniProt Q9UBN7); experiment: Fluor de Lys HDAC isoform assay, HDAC6
T1 sequence (Q9UBN7 1-1215): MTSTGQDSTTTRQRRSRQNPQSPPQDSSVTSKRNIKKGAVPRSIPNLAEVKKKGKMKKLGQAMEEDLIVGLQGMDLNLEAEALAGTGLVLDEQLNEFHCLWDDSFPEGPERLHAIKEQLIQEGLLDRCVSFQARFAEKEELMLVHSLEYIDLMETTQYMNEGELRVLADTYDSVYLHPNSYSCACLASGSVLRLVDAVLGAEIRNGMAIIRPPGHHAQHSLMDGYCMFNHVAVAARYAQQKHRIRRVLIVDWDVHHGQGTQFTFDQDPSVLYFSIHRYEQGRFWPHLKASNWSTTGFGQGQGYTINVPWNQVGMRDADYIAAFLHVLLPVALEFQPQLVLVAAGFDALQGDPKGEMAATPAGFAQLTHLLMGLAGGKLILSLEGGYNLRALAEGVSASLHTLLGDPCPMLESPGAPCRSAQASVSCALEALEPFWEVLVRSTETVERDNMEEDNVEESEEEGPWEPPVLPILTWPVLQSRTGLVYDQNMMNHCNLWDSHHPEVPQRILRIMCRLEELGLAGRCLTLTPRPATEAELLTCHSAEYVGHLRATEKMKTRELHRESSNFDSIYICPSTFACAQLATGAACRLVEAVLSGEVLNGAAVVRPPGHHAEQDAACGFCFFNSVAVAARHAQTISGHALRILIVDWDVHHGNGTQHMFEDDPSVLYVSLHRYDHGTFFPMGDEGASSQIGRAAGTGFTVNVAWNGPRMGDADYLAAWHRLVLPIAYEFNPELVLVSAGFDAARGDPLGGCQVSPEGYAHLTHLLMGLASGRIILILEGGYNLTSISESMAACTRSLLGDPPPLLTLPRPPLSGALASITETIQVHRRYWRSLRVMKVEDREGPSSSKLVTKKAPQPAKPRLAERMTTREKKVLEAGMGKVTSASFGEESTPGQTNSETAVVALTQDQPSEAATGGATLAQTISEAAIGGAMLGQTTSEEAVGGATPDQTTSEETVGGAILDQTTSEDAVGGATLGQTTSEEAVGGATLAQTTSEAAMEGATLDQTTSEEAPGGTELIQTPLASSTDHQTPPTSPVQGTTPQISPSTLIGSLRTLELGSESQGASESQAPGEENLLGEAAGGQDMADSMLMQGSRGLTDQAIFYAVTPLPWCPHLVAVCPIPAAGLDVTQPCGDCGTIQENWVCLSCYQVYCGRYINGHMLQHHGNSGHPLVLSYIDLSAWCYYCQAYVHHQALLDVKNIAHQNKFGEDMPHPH

[4] = target: HDAC3 (Homo sapiens, UniProt O15379); experiment: Fluor de Lys HDAC isoform assay, HDAC3
[5] = Solubility observed in the HDAC assay; type: physicochemical; settings: assay conditions; prevented testing above 250 μM
[6] = 125 μM single concentration screen

Sequence of HDAC1 (Q13547 whole entry, canonical isoform): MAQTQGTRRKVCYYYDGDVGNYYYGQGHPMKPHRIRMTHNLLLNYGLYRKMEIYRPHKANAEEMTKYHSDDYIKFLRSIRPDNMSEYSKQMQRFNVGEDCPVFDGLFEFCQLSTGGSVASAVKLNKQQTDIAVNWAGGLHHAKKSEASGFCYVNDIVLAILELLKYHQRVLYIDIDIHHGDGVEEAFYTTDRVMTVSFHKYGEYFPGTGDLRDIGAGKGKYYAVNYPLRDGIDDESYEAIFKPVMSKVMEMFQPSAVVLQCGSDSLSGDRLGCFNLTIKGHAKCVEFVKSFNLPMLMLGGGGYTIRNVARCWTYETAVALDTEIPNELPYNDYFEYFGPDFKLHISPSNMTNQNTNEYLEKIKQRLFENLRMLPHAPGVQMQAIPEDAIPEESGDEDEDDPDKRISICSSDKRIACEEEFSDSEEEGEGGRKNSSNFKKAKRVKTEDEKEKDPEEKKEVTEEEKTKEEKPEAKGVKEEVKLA
Sequence of HDAC3 (O15379 whole entry, canonical isoform): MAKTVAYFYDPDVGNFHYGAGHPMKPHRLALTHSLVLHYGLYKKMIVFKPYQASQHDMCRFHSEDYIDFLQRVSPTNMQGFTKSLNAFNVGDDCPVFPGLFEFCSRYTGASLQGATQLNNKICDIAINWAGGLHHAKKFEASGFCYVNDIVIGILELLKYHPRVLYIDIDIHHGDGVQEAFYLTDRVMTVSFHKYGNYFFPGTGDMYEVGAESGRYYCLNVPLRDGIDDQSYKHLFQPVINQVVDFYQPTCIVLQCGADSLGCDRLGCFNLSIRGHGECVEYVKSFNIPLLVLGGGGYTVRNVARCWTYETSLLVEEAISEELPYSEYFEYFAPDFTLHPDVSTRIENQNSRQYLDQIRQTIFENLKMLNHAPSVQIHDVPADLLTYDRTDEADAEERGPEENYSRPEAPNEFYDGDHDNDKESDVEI
Sequence of HDAC3 (Q9Y618 395-489 partner limits assumed): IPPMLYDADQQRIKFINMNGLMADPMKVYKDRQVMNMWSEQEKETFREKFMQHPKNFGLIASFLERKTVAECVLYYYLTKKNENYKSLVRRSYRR

CN(O)C(=O)CCCCCCC(=O)Nc1ccccc1 [Compound 2a, N^1-hydroxy-N^1-methyl-N^8-phenyloctanediamide]
fold reduced potency compared to SAHA [1]: > 8800 fold | IC50 [1]: 794 ± 41 µM | isoform selectivity among HDAC1, 3 and 6 [2]: little to no isoform selectivity

O=C(CCCCCCC(=O)N(O)Cc1ccc(-c2ccccc2)cc1)Nc1ccccc1 [Compound 2e, N^1-(biphenyl-4-methyl)-N^1-hydroxy-N^8-phenyloctanediamide]
inhibition of HDAC6 [3, 6]: statistically insignificant inhibition | inhibition of HDAC3 [4, 6]: statistically insignificant inhibition | solubility [5]: low solubility at high concentrations | % activity remaining [1]: 101 ± 1% activity with 250 μM^b) | IC50 [1]: > 500 µM | activity remaining, HDAC1 [2, 6]: 58±2% | isoform selectivity among HDAC1, 3 and 6 [2]: preferential HDAC1 inhibition | IC50 ([2]; read-out: IC50 HDAC1, mean of at least three trials with standard error): 233 ± 40 µM

O=C(CCCCCCC(=O)N(O)Cc1ccccc1)Nc1ccccc1 [Compound 2c, N^1-benzyl-N^1-hydroxy-N^8-phenyloctanediamide]
IC50 [3]: 287 ± 9 µM | IC50 [4]: 440 ± 23 µM | IC50 [1]: 293 ± 32 µM | IC50 [2]: 177 ± 21 µM | isoform selectivity among HDAC1, 3 and 6 [2]: preferential HDAC1 inhibition | preference for HDAC1 versus HDAC3 ([2]; ratio of IC50 values): 2.5 fold

CCCCCN(O)C(=O)CCCCCCC(=O)Nc1ccccc1 [Compound 2b, N^1-pentyl-N^1-hydroxy-N^8-phenyloctanediamide]
fold reduced potency compared to SAHA [1]: 1700 fold | IC50 [1]: 153 ± 14 µM | isoform selectivity among HDAC1, 3 and 6 [2]: little to no isoform selectivity

O=C(CCCCCCC(=O)N(O)CCc1ccccc1)Nc1ccccc1 [Compound 2d, N^1-hydroxy-N^1-phenethyl-N^8-phenyloctanediamide]
solubility [5]: low solubility at high concentrations | % activity remaining [1]: 80 ± 2% activity at 250 μM^b) | IC50 [1]: > 500 µM | isoform selectivity among HDAC1, 3 and 6 [2]: roughly similar potency against the isoforms
